The assay concerns the target T1, peroxisome proliferator-activated receptor gamma (PPARγ) (Homo sapiens, UniProt P37231).
T1 sequence (P37231 223-505 limits assumed): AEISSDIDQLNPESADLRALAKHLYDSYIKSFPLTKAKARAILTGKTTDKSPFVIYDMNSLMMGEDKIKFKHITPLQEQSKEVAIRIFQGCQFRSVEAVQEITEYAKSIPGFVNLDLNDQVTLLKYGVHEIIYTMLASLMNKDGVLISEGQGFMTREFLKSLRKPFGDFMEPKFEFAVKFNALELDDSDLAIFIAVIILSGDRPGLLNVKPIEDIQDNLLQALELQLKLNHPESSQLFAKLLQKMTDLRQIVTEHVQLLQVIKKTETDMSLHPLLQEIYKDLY
In words: fluorescence polarization probe displacement. It is filed as binding. (In general: Fluorescence polarisation rises when a labelled molecule tumbles more slowly, as on binding a larger partner.)

Molecules are shown by their SMILES.

One may read the IC50 as the concentration that inhibits the measured activity by half. The low end stands for greater potency, the high end for weaker potency. The compound `O=c1c(-c2ccc(O)cc2)coc2cc(O)cc(O)c12` [genistein] came in with an IC50 of 23.9 µM.

Source of the values: paper PMC8092170 (Indian Journal of Pharmacology, 2021).
